Experimental data from PMC8606745 (Frontiers in Microbiology, 2021).
Like-named read-outs stand apart in the source and are kept apart here. Peptide text beside a SMILES is read from it.

Experiments:
[1] = system: X. fastidiosa subsp. fastidiosa IVIA 5387.2
[2] = system: horse erythrocytes
[3] = system: X. fastidiosa subsp. fastidiosa IVIA 5387.2; assay type: cell-based, Xylella fastidiosa
[4] = system: Gram-negative bacteria; set-up: key: Xf: Xylella fastidiosa; Ec: Escherichia coli; Pa: Pseudomonas aeruginosa; Ab: Acinetobacter baumannii; Kp: Klebsiella pneumoniae; Bc: Burkholderia cenocepacia; Se: Salmonella enterica subsp. enterica; Sp: Salmonella pullorum; –: low or no activity; details: cited from earlier work
[5] = system: Gram-negative bacteria; set-up: key: Xf: Xylella fastidiosa; Ec: Escherichia coli; Pa: Pseudomonas aeruginosa; Ab: Acinetobacter baumannii; Kp: Klebsiella pneumoniae; Bc: Burkholderia cenocepacia; Se: Salmonella enterica subsp. enterica; Sp: Salmonella pullorum; –: low or no activity; details: cited from earlier work; remark: listed apart in the source

Compound	Bactericidal activity: Reduction in viability (Log N0/N) ([1]; 50 µM)	Hemolysis ([2]; 150 µM) [%]	Hemolysis ([2]; 250 µM) [%]	Hemolysis ([2]; 375 µM) [%]	Biofilm formation Level (antibiofilm activity) ([3]; 50 µM)	Biofilm formation Ratio (treatment/NTC) ([3]; 50 µM)	Planktonic cells Ratio (treatment/NTC) ([3]; 50 µM)	Described activity: Antibiofilm [4]	Described activity: Antibacterial [5]	Bactericidal activity: Reduction in viability (Log N0/N) [1] [Log N0/N]	further results
CC[C@H](C)[C@H](NC(=O)[C@H](CCCNC(=N)N)NC(=O)[C@@H](N)Cc1ccccc1)C(=O)N[C@@H](CCCNC(=N)N)C(=O)N[C@H](C(=O)N[C@@H](CCCNC(=N)N)C(=O)N[C@H](C(N)=O)C(C)C)C(C)C [FV7] (H-FRIRVRV-NH2; N-terminus assumed)	0.07 ± 0.14	3.7 ± 0.4	4.4 ± 0.3	9.5 ± 1.4	High (key: High: high antibiofilm activity (ratio of biofilm formation from 0.01 to 0.2); Moderate: moderate activity (ratio from 0.29 to 0.47); Low: low activity (ratio from 0.72 to 0.77))	0.20 ± 0.01	1.33 ± 0.17	Ec, Pa	Ec, Pa, Se, Sp	–	–
CC[C@H](C)[C@H](NC(=O)[C@H](CCCNC(=N)N)NC(=O)[C@H](Cc1ccccc1)NC(=O)[C@H](CCCNC(=N)N)NC(=O)[C@@H](N)CCCCN)C(=O)N[C@@H](CCCNC(=N)N)C(=O)N[C@H](C(=O)N[C@@H](CCCNC(=N)N)C(=O)N[C@H](C(=O)N[C@H](C(=O)N[C@@H](CCCNC(=N)N)C(=O)N[C@@H](CCCCN)C(N)=O)[C@@H](C)CC)C(C)C)C(C)C [HH15] (H-KRFRIRVRVIRK-NH2)	–	2.3 ± 0.3	4.5 ± 1.9	4.0 ± 0.4	–	–	–	Pa, Bc	Pa, Bc	0.21 ± 0.02	Biofilm formation Level (antibiofilm activity) [3]: High (key: High: high antibiofilm activity (ratio of biofilm formation from 0.01 to 0.2); Moderate: moderate activity (ratio from 0.29 to 0.47); Low: low activity (ratio from 0.72 to 0.77)); Biofilm formation Ratio (treatment/NTC) [3]: 0.14 ± 0.01; Planktonic cells Ratio (treatment/NTC) [3]: 2.50 ± 0.05
CC[C@H](C)[C@H](NC(=O)CN)C(=O)N[C@@H](CC(C)C)C(=O)NCC(=O)N[C@@H](CCCCN)C(=O)N[C@@H](CC(C)C)C(=O)N[C@@H](Cc1c[nH]c2ccccc12)C(=O)N[C@@H](CCC(=O)O)C(=O)NCC(=O)N[C@H](C(=O)N[C@@H](CCCCN)C(=O)N[C@@H](CO)C(=O)N[C@H](C(=O)N[C@@H](Cc1ccccc1)C(N)=O)[C@@H](C)CC)C(C)C [HP1404] (H-GILGKLWEGVKSIF-NH2)	–	100.0 ± 0.5	100.0 ± 3.9	100.0 ± 0.7	–	–	–	Pa	Pa	0.00 ± 0.12	Biofilm formation Level (antibiofilm activity) [3]: High (key: High: high antibiofilm activity (ratio of biofilm formation from 0.01 to 0.2); Moderate: moderate activity (ratio from 0.29 to 0.47); Low: low activity (ratio from 0.72 to 0.77)); Biofilm formation Ratio (treatment/NTC) [3]: 0.15 ± 0.01; Planktonic cells Ratio (treatment/NTC) [3]: 2.75 ± 0.02
CC[C@H](C)[C@H](NC(=O)[C@H](CCCNC(=N)N)NC(=O)[C@@H](NC(=O)[C@H](C)NC(=O)[C@@H](NC(=O)[C@@H](NC(=O)[C@H](CC(C)C)NC(=O)[C@H](CCCNC(=N)N)NC(=O)[C@@H](N)C(C)C)[C@@H](C)CC)C(C)C)C(C)C)C(=O)N[C@@H](Cc1c[nH]c2ccccc12)C(=O)N[C@@H](CCCNC(=N)N)C(=O)N[C@@H](CCCNC(=N)N)C(N)=O [IDR-1018] (H-VRLIVAVRIWRR-NH2; N-terminus and C-terminus assumed)	1.80 ± 0.01	35.6 ± 4.4	43.0 ± 0.2	45.9 ± 4.9	High (key: High: high antibiofilm activity (ratio of biofilm formation from 0.01 to 0.2); Moderate: moderate activity (ratio from 0.29 to 0.47); Low: low activity (ratio from 0.72 to 0.77))	0.06 ± 0.01	1.72 ± 0.07	Pa, Ec, Ab, Kp, Se, Bc	Kp, Ec	–	–
CC[C@H](C)[C@H](N)C(=O)N[C@@H](CC(C)C)C(=O)N1CCC[C@H]1C(=O)N[C@@H](Cc1c[nH]c2ccccc12)C(=O)N[C@@H](CCCCN)C(=O)N[C@@H](Cc1c[nH]c2ccccc12)C(=O)N1CCC[C@H]1C(=O)N[C@@H](Cc1c[nH]c2ccccc12)C(=O)N[C@@H](Cc1c[nH]c2ccccc12)C(=O)N1CCC[C@H]1C(=O)N[C@@H](Cc1c[nH]c2ccccc12)C(=O)N[C@@H](CCCNC(=N)N)C(=O)N[C@@H](CCCNC(=N)N)C(N)=O [Indolicidin]	–	95.1 ± 5.0	100.0 ± 4.4	100.0 ± 2.5	–	–	–	–	Xf	2.46 ± 0.11	log reduction of cell viability ([1]; 3 h, 50 μM): 2-3 log; Biofilm formation Level (antibiofilm activity) [3]: High (key: High: high antibiofilm activity (ratio of biofilm formation from 0.01 to 0.2); Moderate: moderate activity (ratio from 0.29 to 0.47); Low: low activity (ratio from 0.72 to 0.77)); Biofilm formation Ratio (treatment/NTC) [3]: 0.09 ± 0.01; Planktonic cells Ratio (treatment/NTC) [3]: 0.46 ± 0.07
CC[C@H](C)[C@H](NC(=O)[C@H](CCCNC(=N)N)NC(=O)[C@H](CCCNC(=N)N)NC(=O)[C@H](Cc1c[nH]c2ccccc12)NC(=O)[C@H](Cc1ccccc1)NC(=O)[C@@H](N)C(C)C)C(=O)N[C@@H](CCCNC(=N)N)C(=O)N[C@H](C(=O)N[C@@H](Cc1c[nH]c2ccccc12)C(=O)N[C@H](C(=O)N[C@H](C(=O)N[C@@H](CCCNC(=N)N)C(N)=O)[C@@H](C)CC)C(C)C)C(C)C [LJK2] (H-VFWRRIRVWVIR-NH2)	–	28.4 ± 1.9	43.9 ± 3.7	72.4 ± 8.9	–	–	–	–	–	0.80 ± 0.10	Effect on X. fastidiosa growth in the antibiofilm test [3]: affected X. fastidiosa’s growth
CC[C@H](C)[C@H](NC(=O)[C@H](CCCNC(=N)N)NC(=O)[C@@H](NC(=O)[C@H](Cc1c[nH]c2ccccc12)NC(=O)[C@@H](NC(=O)[C@@H](NC(=O)[C@@H](N)CCCNC(=N)N)[C@@H](C)CC)C(C)C)C(C)C)C(=O)N[C@@H](CCCNC(=N)N)C(=O)N[C@@H](CCCNC(=N)N)C(=O)N[C@@H](Cc1c[nH]c2ccccc12)C(=O)N[C@@H](Cc1ccccc1)C(=O)N[C@H](C(N)=O)C(C)C [RJK2] (H-RIVWVRIRRWFV-NH2)	0.70 ± 0.08	19.2 ± 3.1	29.6 ± 2.2	50.2 ± 5.4	High (key: High: high antibiofilm activity (ratio of biofilm formation from 0.01 to 0.2); Moderate: moderate activity (ratio from 0.29 to 0.47); Low: low activity (ratio from 0.72 to 0.77))	0.02 ± 0.00	1.54 ± 0.07	–	–	–	–
CC[C@H](C)[C@H](NC(=O)[C@H](CCCNC(=N)N)NC(=O)[C@H](CCCNC(=N)N)NC(=O)[C@H](CC(C)C)NC(=O)[C@H](Cc1c[nH]c2ccccc12)NC(=O)[C@H](C)NC(=O)[C@H](CCCCN)NC(=O)[C@@H](NC(=O)[C@H](CCCNC(=N)N)NC(=O)[C@H](CCCNC(=N)N)NC(=O)[C@H](CC(C)C)NC(=O)[C@@H](N)Cc1c[nH]c2ccccc12)[C@@H](C)CC)C(=O)N[C@@H](CCCCN)C(=O)N[C@@H](C)C(=O)O [RR4-OH]	1.94 ± 0.03	3.2 ± 1.0	9.8 ± 3.7	17.8 ± 0.3	High (key: High: high antibiofilm activity (ratio of biofilm formation from 0.01 to 0.2); Moderate: moderate activity (ratio from 0.29 to 0.47); Low: low activity (ratio from 0.72 to 0.77))	0.09 ± 0.01	1.87 ± 0.10	Pa, Ab	Pa, Ab	–	–
HOC11H22CO-ILPFKFPFFPFRR-NH2 [BP529]	0.62 ± 0.09	7.2 ± 0.3	12.5 ± 0.6	39.0 ± 1.1	High (key: High: high antibiofilm activity (ratio of biofilm formation from 0.01 to 0.2); Moderate: moderate activity (ratio from 0.29 to 0.47); Low: low activity (ratio from 0.72 to 0.77))	0.12 ± 0.03	2.29 ± 0.03	–	–	–	–
KRIVKLILKWLR-NH2 [KR-12-a5]	1.40 ± 0.07	79.0 ± 0.6	96.1 ± 1.8	100.0 ± 1.7	–	–	–	Pa	Ec, Pa, Se	–	Effect on X. fastidiosa growth in the antibiofilm test ([3]; 50 µM): affected X. fastidiosa’s growth
Magainin 2	3.29 ± 0.11	35.2 ± 1.1	54.5 ± 3.7	71.1 ± 6.0	–	–	–	–	Xf	–	Bactericidal activity: Reduction in viability (Log N0/N) ([1]; 3.1 µM): 0.49 ± 0.10 Log N0/N; log reduction ([1]; 3.1 µM): poorly active; Bactericidal activity: Reduction in viability (Log N0/N) ([1]; 12.5 μM): 2.07 ± 0.12 Log N0/N; log reduction ([1]; 12.5 μM): 2 log; Biofilm formation Level (antibiofilm activity) ([3]; 12.5 μM): Moderate (key: High: high antibiofilm activity (ratio of biofilm formation from 0.01 to 0.2); Moderate: moderate activity (ratio from 0.29 to 0.47); Low: low activity (ratio from 0.72 to 0.77)); Biofilm formation Ratio (treatment/NTC) ([3]; 28°C, 5 days): 0.47 ± 0.02; Planktonic cells Ratio (treatment/NTC) ([3]; 28°C, 5 days): 1.59 ± 0.13
